We go through 16 compounds from patent US20250059205A1, “Heterocyclic Compounds and Methods of Use” (AMGEN INC., priority 2021, published 2025).

Read-outs that look alike come from different tables or passages of the source.

The target of test [1] is His-tagged KRAS G12D protein (Homo sapiens, UniProt P01116, G12D). The test is described as follows: KRAS G12D TR-FRET Assay. It is filed as binding. (Time-resolved FRET reads energy transfer from a long-lived donor to a nearby acceptor.)
Test [2] deals with GDP-bound KRAS protein (aa 1-169), containing both G12D and C118A amino acid substitutions (Homo sapiens, UniProt P01116, C118A/G12D). The experiment in a line: KRAS G12D Coupled Nucleotide Exchange Assay. Format: biochemical. Particulars: 2 h compound pre-incubation. Here is the method: Following compound pre-incubation, purified SOS protein (aa 564-1049) and GTP (Roche 10106399001) were added to the assay wells and incubated for an additional 30 min. […] The assay plates were then read on a PerkinElmer EnVision Multilabel Reader, using AlphaScreen® technology, and data were analyzed using a 4-parameter logistic model to calculate IC50 values.
GDP-bound KRAS protein (aa 1-169), containing both G12D and C118A amino acid substitutions, sequence (P01116 1-169 isoform P01116-2 G12D/C118A): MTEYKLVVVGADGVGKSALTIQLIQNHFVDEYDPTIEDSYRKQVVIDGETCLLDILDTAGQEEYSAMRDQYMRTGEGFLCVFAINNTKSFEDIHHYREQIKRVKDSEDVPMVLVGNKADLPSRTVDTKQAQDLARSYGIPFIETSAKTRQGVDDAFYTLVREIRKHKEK

The subject of test [3] is Phosphorylation of ERK1/2 in AsPC-1 cells. The test is described as follows: Phospho-ERK1/2 MSD Assay (AsPC-1 cells). Format: cell-based. Particulars: 2 hours treatment, read-out: p-ERK (AsPC-1 cells) IC50. The essentials:
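Read-out: MSD electrochemiluminescent detection of phosphorylated ERK1/2 in whole-cell lysates, fitted to a 4-parameter logistic curve for IC50. Prior to lysis, AsPC-1 cells (25,000 per well) received a 2 h compound dose-response at 37 °C.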

Test [4] concerns Phosphorylation of ERK1/2 in A-427 cells. The test is described as follows: Phospho-ERK1/2 MSD Assay (A-427 cells). Format: cell-based. Particulars: 2 h treatment, read-out: p-ERK (A427 cells) IC50. The essentials: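 ERK1/2 phosphorylation measured by Meso Scale whole-cell lysate assay after A-427 cells were exposed to a titration of compound for 2 h at 37 °C.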

His-tagged KRAS G12D protein, sequence (P01116 1-188 isoform P01116-2 G12D): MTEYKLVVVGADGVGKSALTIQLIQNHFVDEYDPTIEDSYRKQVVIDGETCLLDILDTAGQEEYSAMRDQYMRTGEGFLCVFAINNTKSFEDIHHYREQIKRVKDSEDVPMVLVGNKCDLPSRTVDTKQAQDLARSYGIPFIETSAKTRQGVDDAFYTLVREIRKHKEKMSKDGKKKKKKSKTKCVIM

What is called IC50 is the concentration that gives 50% inhibition. Turning to `Cc1c(-c2cc(O)cc3ccccc23)ccc2c(N3CC4CCC(C3)N4)nc(OCC34CCCN3C[C@H](F)C4)nc12` (stereo in doubt) [Example 32, 4-(4-((1R,5S)-3,8-diazabicyclo[3.2. 1]octan-3-yl)-2-(((2R,7aS)-2-fluorotetrahydro-1H-pyrrolizin-7a(5H)-yl)methoxy)-8-methylquinazolin-7-yl)naphthalen-2-ol], the IC50 was found to be 5 nM in test [1]; 712 nM in test [3] (Homo sapiens, ASPC1, 2 h); 341 nM in test [4] (Homo sapiens, A-427, 2 h). Further, in test [2], the “Avg 2 h Coupled Exchange IC50” value was found to be 2 nM.
As to `CCc1c(F)ccc2cc(O)cc(-c3ccc4c(N5C[C@@H]6CC[C@H]5CN6)nc(OC[C@@]56CCCN5C[C@H](F)C6)nc4c3F)c12` [Example 139, 4-(4-((1S,4S)-2,5-diazabicyclo[2.2.2]octan-2-yl)-8-fluoro-2-(((2R,7aS)-2-fluorotetrahydro-1H-pyrrolizin-7a(5H)-yl)methoxy)quinazolin-7-yl)-5-ethyl-6-fluoronaphthalen-2-ol], the half-maximal inhibitory concentration (IC50) in test [1] is 5 nM; in test [3] (Homo sapiens, ASPC1, 2 h), 44 nM; in test [4] (Homo sapiens, A-427, 2 h) it was 8 nM. Further, in test [2], the “Avg 2 h Coupled Exchange IC50” value stood at 4 nM.
In the same order, the values of `Oc1cc(-c2ccc3c(N4C[C@@H]5CC[C@H]4CN5)nc(OC[C@@]45CCCN4C[C@H](F)C5)nc3c2F)c2ccccc2c1` [Example 45, 4-(4-((1S,4S)-2,5-diazabicyclo[2.2. 2]octan-2-yl)-8-fluoro-2-(((2R,7aS)-2-fluorotetrahydro-1H-pyrrolizin-7a(5H)-yl)methoxy)quinazolin-7-yl)naphthalen-2-ol] are 4 nM, 190 nM, 25 nM and 2 nM.
The matching figures for `Cc1c(-c2cc(O)cc3ccccc23)ccc2c(N3C[C@H]4CC[C@@H](C3)N4)nc(OC[C@@]34CCCN3C[C@H](F)C4)nc12` [Example 33, 4-(4-((1R,5S)-3,8-diazabicyclo[3.2. 1]octan-3-yl)-2-(((2R,7aS)-2-fluorotetrahydro-1H-pyrrolizin-7a(5H)-yl)methoxy)-8-methylquinazolin-7-yl)naphthalen-2-ol]: 8 nM, 509 nM, 291 nM and 3 nM.
Turning to `Fc1cc2c(N3C[C@H]4CC[C@@H](C3)N4)nc(OC[C@@]34CCCN3C[C@H](F)C4)nc2c(F)c1-c1cccc2ccc(F)c(F)c12` [Example 155, 4-((1R,5S)-3,8-diazabicyclo[3.2.1]octan-3-yl)-7-(7,8-difluoronaphthalen-1-yl)-6,8-difluoro-2-(((2R,7aS)-2-fluorotetrahydro-1H-pyrrolizin-7a(5H)-yl)methoxy) quinazoline], the IC50 stood at 5 nM in test [1]; 667 nM in test [3] (Homo sapiens, ASPC1, 2 h); 639 nM in test [4] (Homo sapiens, A-427, 2 h). The “Avg 2 h Coupled Exchange IC50” value in test [2] is 3 nM.
The matching figures for `Cc1c(-c2cc(O)cc3ccc(F)c(F)c23)ccc2c(N3C[C@H]4CC[C@@H](C3)N4)nc(OC[C@@]34CCCN3C[C@H](F)C4)nc12` [Example 97, 4-(4-((1R,5S)-3,8-diazabicyclo[3.2. 1]octan-3-yl)-2-(((2R,7aS)-2-fluorotetrahydro-1H-pyrrolizin-7a(5H)-yl)methoxy)-8-methylquinazolin-7-yl)-5,6-difluoronaphthalen-2-ol]: 6 nM, 178 nM, 69 nM and 6 nM.
Consider `Cc1ccc2[nH]nc(C)c2c1-c1ccc2c(N3C[C@H]4CC[C@@H](C3)N4)nc(OC[C@@]34CCCN3C[C@H](F)C4)nc2c1F` [Example 209, 4-((1R,5S)-3,8-diazabicyclo[3.2.1]octan-3-yl)-7-(3,5-dimethyl-1H-indazol-4-yl)-8-fluoro-2-(((2R,7aS)-2-fluorotetrahydro-1H-pyrrolizin-7a(5H)-yl)methoxy) quinazoline], for which the IC50 amounted to 68 nM in test [1]; 2570 nM in test [3] (Homo sapiens, ASPC1, 2 h); 1620 nM in test [4] (Homo sapiens, A-427, 2 h). Moreover, the “Avg 2 h Coupled Exchange IC50” value in test [2] was 24 nM.
The matching figures for `CCc1c(F)ccc2cccc(-c3ccc4c(N5C[C@H]6CC[C@@H](C5)N6)nc(OC[C@@]56CCCN5C[C@H](F)C6)nc4c3F)c12` [Example 90, 4-((1R,5S)-3,8-diazabicyclo[3.2. 1]octan-3-yl)-7-(8-ethyl-7-fluoronaphthalen-1-yl)-8-fluoro-2-(((2R,7aS)-2-fluorotetrahydro-1H-pyrrolizin-7a(5H)-yl)methoxy) quinazoline]: 4 nM, 790 nM, 454 nM and 3 nM.
Consider `CCc1c(F)ccc2cc(O)cc(-c3c(F)cc4c(N5C6CCC5C(=O)NC6)nc(OC[C@@]56CCCN5C[C@H](F)C6)nc4c3F)c12` (single isomer, unassigned) [Example 176], for which the IC50 in test [1] is 11 nM; in test [3], 2650 nM; in test [4] it was 545 nM. Further, the “Avg 2 h Coupled Exchange IC50” value in test [2] was determined as 7 nM.
With `Cc1c(Cl)cc2[nH]ncc2c1-c1ccc2c(N3C[C@H]4CC[C@@H](C3)N4)nc(OC[C@@]34CCCN3C[C@H](F)C4)nc2c1` [Example 40, 4-((1R,5S)-3,8-diazabicyclo[3.2. 1]octan-3-yl)-7-(6-chloro-5-methyl-1H-indazol-4-yl)-2-(((2R,7aS)-2-fluorotetrahydro-1H-pyrrolizin-7a(5H)-yl)methoxy) quinazoline], the half-inhibitory concentration (IC50) in test [1] stood at 11 nM; in test [3] (Homo sapiens, ASPC1, 2 h), 2390 nM; in test [4] (Homo sapiens, A-427, 2 h), 686 nM. The “Avg 2 h Coupled Exchange IC50” value in test [2] came out at 6 nM.
The matching figures for `CCc1cccc2cccc(-c3c(F)cc4c(N5C[C@H]6CC[C@@H](C5)N6)nc(OC[C@@]56CCCN5C[C@H](F)C6)nc4c3F)c12` [Example 68, 4-((1R,5S)-3,8-diazabicyclo[3.2. 1]octan-3-yl)-7-(8-ethylnaphthalen-1-yl)-6,8-difluoro-2-(((2R,7aS)-2-fluorotetrahydro-1H-pyrrolizin-7a(5H)-yl)methoxy) quinazoline]: 4 nM, 658 nM, 732 nM and 3 nM.
As to `CCc1c(F)ccc2cc(O)cc(-c3c(F)cc4c(N5C[C@H]6CC[C@@H](C5)N6)nc(OCC(O)(CC)CC)nc4c3F)c12` [Example 123, 4-(4-((1R,5S)-3,8-diazabicyclo[3.2.1]octan-3-yl)-2-(2-ethyl-2-hydroxybutoxy)-6,8-difluoroquinazolin-7-yl)-5-ethyl-6-fluoronaphthalen-2-ol], the 50% inhibitory concentration (IC50) in test [1] is 12 nM; in test [3] (Homo sapiens, ASPC1, 2 h), 2240 nM; in test [4] (Homo sapiens, A-427, 2 h), 1990 nM. Moreover, the “Avg 2 h Coupled Exchange IC50” value in test [2] was 12 nM.
Turning to `CCc1c(F)ccc2cc(O)cc(-c3ccc4c(N5C[C@H]6CC[C@@H](C5)N6)nc(O[C@@H](C)C(C)(C)O)nc4c3F)c12` [Example 136, 4-(4-((1R,5S)-3,8-diazabicyclo[3.2.1]octan-3-yl)-8-fluoro-2-(((S)-3-hydroxy-3-methylbutan-2-yl)oxy)quinazolin-7-yl)-5-ethyl-6-fluoronaphthalen-2-ol], the IC50 turned out to be 56 nM in test [1]; 4160 nM in test [3] (Homo sapiens, ASPC1, 2 h); 5350 nM in test [4] (Homo sapiens, A-427, 2 h). Besides, in test [2], the “Avg 2 h Coupled Exchange IC50” value stood at 21 nM.
In the same order, the values of `Oc1cc(-c2c(F)cc3c(N4C[C@H]5C[C@@H](C4)N5)nc(OCC45CCCN4CC(F)(F)C5)nc3c2F)c2ccccc2c1` (stereo partly drawn) [Example 20, 4-(4-((1R,5S)-3,6-diazabicyclo[3.1. 1]heptan-3-yl)-2-((2,2-difluorotetrahydro-1H-pyrrolizin-7a(5H)-yl)methoxy)-6,8-difluoroquinazolin-7-yl)naphthalen-2-ol] are 87 nM, 5560 nM, 7280 nM and 40 nM.
In the case of `CCc1cccc2cc(O)cc(-c3c(F)cc4c(N5C[C@@H]6CC[C@H]5CN6)nc(OC[C@@]56CCCN5C[C@H](F)C6)nc4c3F)c12` [Example 109, 4-(4-((1S,4S)-2,5-Diazabicyclo[2.2.2]octan-2-yl)-6,8-difluoro-2-(((2R,7aS)-2-fluorotetrahydro-1H-pyrrolizin-7a(5H)-yl)methoxy)quinazolin-7-yl)-5-ethylnaphthalen-2-ol], the IC50 in test [1] came to 4 nM; in test [3] (Homo sapiens, ASPC1, 2 h), 29 nM; in test [4] (Homo sapiens, A-427, 2 h), 17 nM. For the same compound, the “Avg 2 h Coupled Exchange IC50” value in test [2] was 3 nM.
Regarding `Oc1cc(-c2c(Cl)cc3c(N4C[C@H]5CC[C@@H](C4)N5)nc(OC[C@@]45CCCN4C[C@H](F)C5)nc3c2F)c2ccccc2c1` [Example 52, 4-(4-((1R,5S)-3,8-diazabicyclo[3.2. 1]octan-3-yl)-6-chloro-8-fluoro-2-(((2R,7aS)-2-fluorotetrahydro-1H-pyrrolizin-7a(5H)-yl)methoxy)quinazolin-7-yl)naphthalen-2-ol], the half-maximal inhibitory concentration (IC50) in test [1] came out at 3 nM; in test [3] (Homo sapiens, ASPC1, 2 h), 107 nM; in test [4] (Homo sapiens, A-427, 2 h), 41 nM. Further, the “Avg 2 h Coupled Exchange IC50” value in test [2] is 3 nM.
